The values below come from US9546381B2, “Use of anticoagulants in the production of recombinant proteins in the milk of transgenic animals” (priority 2010, dated 2017).

Several values for one entry are separate records, joined by “and”; a condition that tells them apart may be missing. Identical values can stand only once. Marks after values point to notes of the source that are not given here. Some results are limits rather than exact numbers.

Series [1] relates to recombinant human fibrinogen (rhFib). The experiment in a line: ELISA of rhFib concentration in the milk of warfarin-treated transgenic heifers. To be noted: for rhFib level: ELISA, lines = day, warfarin started on day 1. Background: In an ELISA, binding on a coated surface is turned into a signal by an enzyme label.
Series [2] relates to clots and flakes in the milk of transgenic rhFib cattle. The series is described as follows: Clot scoring of milk of transgenic rhFib cattle during induced lactation. The class given is in vivo. Set-up: key to clot scores / clot score: 0: Normal milk; 1: Flakes; 2: Less than 10 clots from the quarter on the CMT paddle; 3: Greater than 10 clots from the quarter on the CMT paddle; 4: Severe visible clots. The text has this:
Recombinant human fibrinogen has been produced in the milk of transgenic cows for some years now. […] To score the level of clotting and to measure any effects, standards were set to determine whether treatment of the cows to reduce clotting was indeed effective. The standards are provided in Table I. Score level 0 is equal to normal milk from non-transgenic cows, whereas score level 4 equals a dramatic level of clotting and the milking machine is unable to extract the milk from the teat. CMT stands for ‘California Mastitis Test’ and is a standard cow side test that screens for the presence of mastitis, a known cause of milk clotting. When a cow is milked, the milk is collected in a so-called CMT paddle, which has four cups corresponding to the four quarters of the udder. To these cups, equal amounts of CMT solution (made up of a detergent to break down cell walls, a compound that reacts with the cellular DNA and a pH indicator; California Mastitis Test kit, TechniVet, Brunswick, Me.) is added after which the solution is swirled. The CMT solution provides an estimate of the number of cells in the milk (inflammatory cells due to infection by mastitis). As the cell content increases the mixture becomes thick and gel-like and the results are based on the appearance of the solutions. ‘Negative’ in the mastitis test means that the mixture remains fluid; ‘suspicious’ means that the mixture becomes slimy or gel like, and ‘positive’ means that the mixture distinctly forms a gel or jelly. […] The lack of mastitis was also confirmed by the fact that in laboratory tests no inflammatory-inducing bacteria were grown from the rhFib transgenic cow milk. Finally the clinical signs of the cows confirmed that infectious mastitis was not the etiology of the clotting. […] The (blue) staining by the CMT solution provided a useful tool to visualize the clots and helped to distinguish between some of the low scores of rate 1 and 2.
A cow's udder has four quarters, each with their own teat. A cow may loose a quarter due to mastitis but still give milk through the remaining quarters. […] Therefore at each milking period, each quarter was given a clot score and recorded on her milk sheet form. The highest score on the paddle for each day was considered the cow's score for that day when complying the clotting data.
With natural lactation, it is common for cattle to develop swelling and edema in their udders around the time of calving and as they “come into milk” during the first few weeks of lactation. This inflammation of the mammary tissue may activate the rhFib and lead to precipitation within the mammary tissue. This then may lead to a decrease in the milk production and difficulty in removing the milk from the gland. It was hypothesized by the inventors that by a non-natural lactation (that is: by a chemical/hormonal lactation induction), this udder swelling and edema would be avoided and the rhFib would not be activated. This would facilitate an easier lactation with minimal precipitation. For this reason, lactation induction was chosen to produce rhFib in cow #13.
After this, all clot scores remained between 0-1. […] This dose was maintained during day 17 to day 31 and all clot scores still remained between 0-1.
Seven transgenic rhFib cattle were induced to lactate using an estradiol-progesterone alcohol solution and dexamethasone injections as outlined above. From these seven animals, after an initial 34 days of milking, five transgenic cattle were selected to complete an ongoing 16 week lactation period (146 days in total). During this 16 week period 5 liters of milk was saved per animal per week for future production purposes. If an animal was to develop consistent clotting within this production period then a treatment trial with warfarin would begin. Data was collected on these animals to see what level of clot scores they generally reached. […]

The conditions of series [3]: for 5 days; cited from earlier work.
A short description of series [4]: Determination of warfarin dosing in non-transgenic non-lactating cows (PT time, adverse effects). It is filed as in vivo, cattle. As to the method:
An initial experiment was performed to determine a dose range of warfarin in cattle. […] The doses therein range from 0.012 to 0.57 mg/kg.
An initial baseline Prothombin time (PT time) and Hematocrit (Hct) were determined. For cow #4289 Hct was 38 and PT was 25.9 seconds. For cow #6685 Hct was 27 and PT time was 26.7 seconds. PT time is a laboratory assay that reflects the depression of vitamin K dependent Factors II, -VII and -X. The PT times were used to determine the final dosing. The PT time test that is generally used in the art, looks at coagulation factors Factor I (fibrinogen), Factor II (prothrombin), Factor V, Factor VII and Factor X, that are all involved in clotting. The test measures the time it takes for a patient's blood to clot. […] The Hct value is helpful to determine if the animal is becoming anemic (i.e. blood loss that would not be grossly evident). In general, Hct is not checked unless one is concerned that blood loss is occurring.
Initially a dose necessary to double the baseline PT times was to be determined and then the dose was to be increased to monitor for adverse affects. It was decided that if the PT levels began to be prolonged over 2.5 times baseline, or Hct fell below 15% the dose would be decreased. Likewise, it was held that the dose would be decreased or discontinued if any of the following disorders would appear: hematomas, anemia, epistaxis, hematemesis, hematuria, melena, hemathrosis, hemothrax, weakness or hematochezia, or bleeding within the udder. Therapy with vitamin K1 and whole blood would be initiated if there was evidence of […] bleeding.
Moreover, and for the same reason, pregnant animals were also not treated with warfarin.
The dose was increased by 10 mg/day until a dose of 100 mg/day was given (˜0.14 mg/kg). Then, this dose was maintained for 12 days. […] Therefore the following adjustments were made: First, the animal was sedated with xylazine, and second, blood was only collected from the jugular vein while the animal's head was tightly restrained. The dose was increased to 120 mg/day (˜0.17 mg/kg) for 17 days.
It took 6 days of therapy for the PT times to double. […] For this reason, this dose of approximately 0.18 mg/kg was then considered unsafe for use in the transgenic rhFib cows.

The subject of series [5] is clots and flakes in the milk of rhFib transgenic cattle. The experiment in a line: Clot scoring of milk of rhFib transgenic cow and heifers during natural lactation. It is filed as in vivo. To be noted: all five animals. The text has this:
Recombinant human fibrinogen has been produced in the milk of transgenic cows for some years now. […] To score the level of clotting and to measure any effects, standards were set to determine whether treatment of the cows to reduce clotting was indeed effective. The standards are provided in Table I. Score level 0 is equal to normal milk from non-transgenic cows, whereas score level 4 equals a dramatic level of clotting and the milking machine is unable to extract the milk from the teat. CMT stands for ‘California Mastitis Test’ and is a standard cow side test that screens for the presence of mastitis, a known cause of milk clotting. When a cow is milked, the milk is collected in a so-called CMT paddle, which has four cups corresponding to the four quarters of the udder. To these cups, equal amounts of CMT solution (made up of a detergent to break down cell walls, a compound that reacts with the cellular DNA and a pH indicator; California Mastitis Test kit, TechniVet, Brunswick, Me.) is added after which the solution is swirled. The CMT solution provides an estimate of the number of cells in the milk (inflammatory cells due to infection by mastitis). […]
A cow's udder has four quarters, each with their own teat. […] Therefore at each milking period, each quarter was given a clot score and recorded on her milk sheet form. […]

Series [6] has as its system clot formation in the milk of a transgenic cow. The series is described as follows: Heparin therapy in one transgenic cow, clot scores. The class given is in vivo. As for the experimental part: The inventors also used heparin therapy in one transgenic cow to evaluate if it would prevent clot formation at a dose of 150 IU/kg SQ twice a day, for 5 days. While when the heparin was administered to this cow, the clot scores decreased. […] However, due to the high costs of using heparin, that treatment was not further investigated. Other anticoagulants can be used but many have the disadvantage that they need to be injected intravenously or subcutaneously rather than be or administered orally.

Take `CC(=O)CC(c1ccccc1)c1c(O)c2ccccc2oc1=O` (centres unmarked) [warfarin]: the rhFib level was 1.3 mg/ml raw milk and 2.09 mg/ml raw milk in series [1] (heifer 462); 1.61 mg/ml raw milk in series [1] (heifer 463); 0.41 mg/ml raw milk and 0.58 mg/ml raw milk in series [1] (heifer 474). Further, the “concentration of rhFib in milk over time upon warfarin treatment” value in series [1] (three warfarin-treated heifers, while clot score levels drop) was “seem to increase”. Further, the clot scores was 3 (Greater than 10 clots from the quarter on the CMT paddle) in series [2] (#462 and #463, dry off period after warfarin stopped); 1 in series [2] (#462 at day 149, after warfarin stopped at day 142, milk started to plug the filters); 1 in series [2] (#463 at day 161, single quarter, after warfarin stopped at day 142); 0-1 in series [2] (cow #13, 0.12 mg/kg, day 17 to day 31); 1 in series [2] (cow #13, 7 days after warfarin therapy was re-initiated); 2 (Less than 10 clots from the quarter on the CMT paddle) in series [2] (cow #13, 18 days after warfarin was again discontinued, until dried off). For the same compound, the clot scores in series [2] (cow #13, induced lactation, 0.13 mg/kg orally once a day from Time 0) is on record as 0-1; in series [2] (cow #13, over the next 11 days after re-initiation), 0; in series [2] (cow #13, warfarin discontinued for 19 days), 2 (Less than 10 clots from the quarter on the CMT paddle); in series [2] (three heifers #462, #463, #474, within a week after warfarin therapy was initiated) it was 1. The same compound gave a clot score in series [2] (#462 at day 125, single score during treatment) of 1. Besides, in series [2] (#474, stopped at day 142 of milking), the “time until clot scores increased to level 3 after warfarin was stopped” value was ≤ 3 days. For the same compound, the “Highest clot score, #474 Frey” value in series [2] (after discontinuation of warfarin on day 142 of lactation, lines = week of lactation) is given as 3* (Greater than 10 clots from the quarter on the CMT paddle). The adverse effects result was “No adverse effects were observed” in series [2] (cow #13, 0.12 or 0.13 mg/kg per day); “no adverse effects were observed” in series [4] (cow #4289, 120 mg/day (~0.17 mg/kg) orally for 17 days); “developed a bleeding hematoma over the shoulder/thorax” in series [4] (cow #4289, 130 mg/day (~0.18 mg/kg) orally for 6 days, animal euthanized); “No adverse affects were found” in series [4] (cow #6685, 100 mg/day (~0.18 mg/kg) orally for 14 days). Also, the “clot scores reached with warfarin treatment” value in series [2] (cow #13, within a week (conclusion)) is recorded as 0-1. Moreover, the “PT times equal to or above twice the baseline value” in series [2] (three rhFib-transgenic heifers, 0.10 mg/kg daily, PT monitored weekly) is recorded as “did not occur”. In series [3], the LD50 for cattle is given as 200 mg/kg/day. The “days of therapy for the PT times to double” value in series [4] (cow #6685, 100 mg/day (~0.18 mg/kg)) worked out at 6 days. In addition, in series [5] (0.10 to max 0.15 mg/kg), the “adverse reactions from the warfarin treatment” value is listed as “did not show any adverse reactions”. In addition, the highest clot scores in series [5] (after a few days of warfarin 0.10 mg/kg) is on record as 0-1.

Take heparin: the clot scores result was “decreased” in series [6] (150 IU/kg SQ twice a day for 5 days, during administration); “remained low and decreased further with time” in series [6] (after heparin therapy was discontinued).
